Where “and” joins values, the source holds several entries; their conditions need not be identical. Equal entries are not always repeated.
Key:
[1] = tested on: Pseudomonas syringe pv. tomato; test: BTHWA effect on the infectivity of bacteria, growth in Mueller-Hinton broth; format: cell-based; conditions: BTHWA 40 mg/L formulation, after 2 days
Description: (§1) Purified tobacco mosaic virus (TMV) at a concentration of approx. 3 μg/ml was mixed with N-methyl-N-methoxy-7-carboxybenzo[1,2,3]thiadiazole amide (BTHWA) formulation (concentration 40 mg/L) in a 1:1 volume ratio and incubated for 30 min at room temperature (treated leaves). The control was TMV incubated in water. Both virus suspensions were used to mechanically infect tobacco leaves cv. xanthi. Local necrotic spots (hypersensitivity, local infection) produced on the tobacco leaves were measured.
The procedure as described in Example 1 was followed, however, the bacterium Pseudomonas syringe pv. tomato was used. The suspensions formed were incubated in a Mueller-Hinton broth nutrition medium. After 2 days, the concentration of bacteria on the treated plates was compared to the control.

powdery mildew fungi = test: BTHWA effect on the infectivity of fungi, growth in nutrition medium; format: cell-based; conditions: BTHWA 40 mg/L formulation, after 2 days
Description: as §1
The procedure as described in Example 1 was followed, however, a powdery mildew fungi was used, which was then incubated in a nutrition medium.

[2] = tested on: Pseudomonas syringe pv. tomato; test: Protection of tobacco against bacterial infection of Pseudomonas syringe pv. tomato; format: in vivo, Nicotiana tabacum cv. xanthi
Description: Tobacco plants at the 3 developed leaves stage were watered (applied at the roots) twice in weekly intervals with BTHWA solution at a concentration of 20 mg/L. Control tobacco plants were irrigated with water only. One week after the second treatment, a Pseudomonas syringe pv. tomato bacterial suspension, at a concentration of 10^5 CFU/cm^3 was transferred to the leaf by using an insulin syringe (without a needle). The bacterial suspension was prepared from two-day syringe pv. tomato culture on a solid medium. Protection against biotic stress was evaluated based on the amount of bacterial growth in the leaves at the point of introduction followed by the formation of necrotic spots, and this was compared with the control. […] The procedure as described in Example 12 was followed, however, the effectiveness of BTHWA in protecting plants against biotic stress was tested against the bacterial cell concentration raised to approx. 10^6 […].

Radish seeds = test: Germination of radish seeds; format: in vivo; conditions: seeds in 10 mg/L solution, after 2 days
Description: Radish seeds were placed in water-containing solution of BTHWA at a concentration of 10 mg/L or water only (control samples).

[3] = tested on: Tobacco plants (Nicotiana tabacum) var. xanthi; test: Protection against abiotic stress in tobacco caused by herbicide (glyphosate); format: in vivo; conditions: watered twice 20 mg/l; glyphosate 0.005% aqueous solution; 10 days after herbicide application
Description: Tobacco plants (Nicotiana tabacum) var. […] stage of 3 developed leaves were watered twice with solution of BTHWA at concentration of 20 mg/l, at a weekly interval. Control […] plants were treated with water only.

Tomato plants = test: Protection against abiotic stress in tomato caused by lack of water; format: in vivo; conditions: watered twice 20 mg/L; 10 days after cessation of watering
Description: Tomato plants in the phase of first pair of developed true leaves were watered twice with BTHWA at concentration of 20 mg/L, at a weekly intervals. Control tomato plants were treated with water only. A week after the second treatment, plants were exposed to a stress factor in the form of lack of access to water.

Pyrenophora teres = test: Field test on barley, fungal infection by Pyrenophora teres; format: in vivo, Hordeum vulgare (spring); conditions: Example 27: BTHWA 20 mg/L with Trend 90 EC, six foliar applications at 10 days intervals; harvested 13 days after last treatment
Description: The test was conducted on a variety of barley Hordeum vulgare (spring). As such, six applications of the active substance solution was made. The study was conducted on fields of about 25 m^2 in quadruplicate for each combination tested. […] (with the addition of commercial adjuvant) followed by treatment with common fungicide (tebukonazole in formulation containing 250 g of active substance to be applied per 1 ha) in reducing infection of fungi Pyrenophora teres in barley (Hordeum vulgare (spring)) was performed. […] Six applications of the active substance BTHWA solution were made. As a control, one application of fungicide was performed at the time as indicated on the product label. The study was conducted on fields of about 25 m^2 in quadruplicate for each combination tested. […] The fungicide was applied in an amount of 33% its recommended dose (83 g/ha). Six applications of the active substance BTHWA solution were made. As a control, one application of fungicide was performed at the time as indicated on the product label. The study was conducted on fields of about 25 m^2 in quadruplicate for each combination tested.

Rhynchosporium secalis = test: Field test on barley, fungal infection by Rhynchosporium secalis; format: in vivo, Hordeum vulgare (spring); conditions: Example 28: BTHWA 20 mg/L with Trend 90 EC, six foliar applications at 10 days intervals; harvested 13 days after last treatment
Description: The test was on a variety of barley Hordeum vulgare (spring). There were six applications of the active substance solution. The study was conducted on fields of about 25 m^2 in quadruplicate for each combination tested.

In the case of `CON(C)C(=O)c1cccc2nnsc12` [BTHWA, N-methyl-N-methoxy-7-carboxybenzo[1,2,3]thiadiazole amide], the “growth differences between the control medium and the treated medium” value [1] is reported as less than 5%, the “differences in fungal growth on the treated plates and control” value (powdery mildew fungi) is reported as less than 5% and the “protection against the effects of bacterial infection” value ([2]; 10 mg/L, applied by watering or spraying) is reported as “completely protecting the treated plants from the effects of bacterial infection”. For the same molecule, the “protection against the effects of bacterial infection” value ([2]; sprayed twice at weekly intervals, 20 mg/L) was “fully protects the plants against the effects of bacterial infection”, the “bacterial infection and formation of necrotic spots” value ([2]; watered twice at weekly intervals, 20 mg/L, bacteria 10^5 CFU/cm^3) was “these effects were not observed” and the “local necrotic spots at elevated bacterial cell concentration” value ([2]; watering as in Example 12, bacteria approx. 10^6 CFU/cm) was “no local necrotic spots were observed”. The “increase of the mass of the germ in comparison to control” value (Radish seeds) was 5%, the “lesser negative effect of the herbicide compared to the control” value [3] was 26% and the “total mass of the untreated plants lower than the weight of the treated plants” value (Tomato plants) was 10%. The “% of infection” value (Pyrenophora teres) was 17% and 17.50% and the “% of infection” value (Rhynchosporium secalis) was 10% and 10.63%.
